Patent US9200319B2, “Nucleotides and nucleosides and methods for their use in DNA sequencing” (Lasergen, Inc., priority 2008, dated 2015)

Assay: chemical cleavage by palladium-catalysed hydrogenolysis
Details: hydrogen, ethanol, room temperature; for time to complete cleavage to thymidine: heterogenous catalyst, palladium on activated carbon (10 wt. %), TLC/HPLC
Method: Chemical Cleavage Using Heterogenous Palladium Catalyst: To a solution of 5-(benzyloxy)methyl-2′-deoxyuridine (29 mg, 0.082 mmol) in absolute ethanol (2 mL) under a nitrogen atmosphere was added 10 mg of palladium on activated carbon (10 wt. %, 10 mg) (CAUTION: flammable solid! Ensure handling in oxygen-free atmosphere). The mixture was flushed with hydrogen gas and stirred at room temperature for 30 minutes while being monitored by TLC every five minutes. The mixture was filtered, concentrated under reduced pressure, and dried under vacuum to yield thymidine (18 mg, 88%) that was identified by comparison to the authentic sample (TLC and ^1H NMR).
Chemical Cleavage Using Homogenous Palladium Catalyst: To a solution of 5-(benzyloxy)methyl-2′-deoxyuridine (3.48 mg, 0.01 mmol) in absolute ethanol (0.1 mL) under a nitrogen atmosphere a solution of sodium tetrachloropalladate (II) (0.6 mg, 0.002 mmol) in absolute ethanol (0.9 mL) was added. The mixture was flushed with hydrogen gas and stirred at room temperature while being monitored by TLC every five minutes. After 20 minutes TLC indicated complete disappearance of starting material. The sole cleavage product was identified to be thymidine by comparison to the authentic sample on TLC.
(§1) Chemical Cleavage Using Heterogenous Palladium Catalyst: To a solution of 5-(2-isopropylbenzyloxy)methyl-2′-deoxyuridine in absolute ethanol (10 mM, 1 mL) under a nitrogen atmosphere was added of palladium on activated carbon (10 wt. %, 2 mg) (CAUTION: flammable solid! Ensure handling in oxygen-free atmosphere). The mixture was flushed with hydrogen gas and stirred at room temperature for five minutes while being monitored by TLC every one minute. After five minutes TLC indicated complete disappearance of starting material. The sole cleavage product was identified to be thymidine by comparison to the authentic sample on TLC.
as §1, with “To” for “To a”, “5-(2-phenylbenzyloxy)methyl-2′-deoxyuridine” for “5-(2-isopropylbenzyloxy)methyl-2′-deoxyuridine”, “added” for “added of”, “1” for “one”
as §1, with “5-(2,6-dimethylbenzyloxy)methyl-2′-deoxyuridine” for “5-(2-isopropylbenzyloxy)methyl-2′-deoxyuridine”, “added” for “added of”, “1” for “one”
To a solution of 5-benzyloxy-2′-deoxyuridine (10 mg) in ethanol (1 mL) was added Pd/C (10%, 10 mg), and the mixture was stirred for five minutes. Hydrogen was introduced to the system via a balloon and the reaction mixture was stirred at room temperature. Aliquots (5 μL) were taken out from the reaction mixture at various time point intervals and were analyzed by thin layer chromatography and HPLC. Complete cleavage to thymidine was observed after ten minutes at room temperature (Scheme 42 and FIG. 4). The intermediate of the cleavage was identified to be 5-hydroxymethyl-dU generated from initial removal of benzyl group, and HOMedU was further reduced to thymidine. […]

SMILES	time to complete cleavage to thymidine	time to complete disappearance of starting material (cleavage to thymidine) (homogenous catalyst, sodium tetrachloropalladate (II), TLC)
O=c1[nH]c(=O)n([C@H]2C[C@H](O)[C@@H](CO)O2)cc1COCc1ccccc1-c1ccccc1 [5-(2-phenylbenzyloxy)methyl-2′-deoxyuridine]	five	
CC(C)C(OCc1cn([C@H]2C[C@H](O)[C@@H](CO)O2)c(=O)[nH]c1=O)c1ccccc1 (stereo partly drawn) [5-(1-phenyl-2-methyl-propyloxy)methyl-2′-deoxyuridine]	240 min	
O=c1[nH]c(=O)n([C@H]2C[C@H](O)[C@@H](CO)O2)cc1COCc1ccccc1 [5-(benzyloxy)methyl-2′-deoxyuridine]	ten	20 min
CC(C)c1ccccc1COCc1cn([C@H]2C[C@H](O)[C@@H](CO)O2)c(=O)[nH]c1=O [5-(2-isopropylbenzyloxy)methyl-2′-deoxyuridine]	five	
Cc1cccc(C)c1COCc1cn([C@H]2C[C@H](O)[C@@H](CO)O2)c(=O)[nH]c1=O [5-(2,6-dimethylbenzyloxy)methyl-2′-deoxyuridine]	five	
